Results from ChEMBL document CHEMBL1140354, “Novel peptide derivatives of bleomycin A5: synthesis, antitumor activity and interaction with DNA” (Bioorg Med Chem Lett, 2005).

What was measured:
Calf thymus DNA = experiment: Apparent binding constant to calf thymus DNA (CT-DNA); type: nucleic-acid assay; conditions: Bos taurus
HL-60 = experiment: In vitro antitumor activity against humanHL-60 tumor cell line; type: functional, cell-based; conditions: Homo sapiens
MDA-MB-435 = experiment: In vitro antitumor activity against human MDA-MB-435 tumor cell line; type: functional, cell-based
BGC-823 = experiment: In vitro antitumor activity against humanBGC-823 tumor cell line; type: functional, cell-based; conditions: Homo sapiens
[1] = In vitro antitumor activity against human PC-3MIE8 tumor cell line; type: functional
Nucleic Acid = experiment: Thermal denaturation alteration for calf thymus DNA (CT-DNA) binding to the compound was determined; type: functional; conditions: Bos taurus

Compound | Kb (Calf thymus DNA) | IC50 (HL-60) | IC50 (MDA-MB-435) | IC50 (BGC-823) | IC50 [1] | ΔTm (Nucleic Acid)
Cc1c(N)nc([C@H](CC(N)=O)NC[C@H](N)C(N)=O)nc1C(=O)N[C@H](C(=O)N[C@H](C)[C@@H](O)[C@H](C)C(=O)N[C@H](C(=O)NCCc1nc(-c2nc(C(=O)NCCCNCCCCN)cs2)cs1)[C@@H](C)O)[C@@H](O[C@@H]1O[C@@H](CO)[C@@H](O)[C@@H](O)[C@@H]1O[C@H]1O[C@H](CO)[C@@H](O)[C@H](OC(N)=O)[C@@H]1O)c1c[nH]cn1 | 457000 | 250 nM | 1640 nM | 1250 nM | 1480 nM | 2.9 °C
Cc1c(N)nc([C@H](CC(N)=O)NC[C@H](N)C(N)=O)nc1C(=O)N[C@H](C(=O)N[C@H](C)[C@@H](O)[C@H](C)C(=O)N[C@H](C(=O)NCCc1nc(-c2nc(C(=O)NCCCNCCCCNC(=O)[C@H](N)CC(C)C)cs2)cs1)[C@@H](C)O)[C@@H](O[C@@H]1O[C@@H](CO)[C@@H](O)[C@H](O)[C@@H]1O[C@H]1O[C@H](CO)[C@@H](O)[C@H](OC(N)=O)[C@@H]1O)c1c[nH]cn1 | 283000 | 370 nM | 170 nM | 730 nM | 1270 nM | 1.5 °C
Cc1c(N)nc([C@H](CC(N)=O)NC[C@H](N)C(N)=O)nc1C(=O)N[C@H](C(=O)N[C@H](C)[C@@H](O)[C@H](C)C(=O)N[C@H](C(=O)NCCc1nc(-c2nc(C(=O)NCCCNCCCCNC(=O)[C@H](N)C(C)C)cs2)cs1)[C@@H](C)O)[C@@H](O[C@@H]1O[C@@H](CO)[C@@H](O)[C@H](O)[C@@H]1O[C@H]1O[C@H](CO)[C@@H](O)[C@H](OC(N)=O)[C@@H]1O)c1c[nH]cn1 | 249000 | 310 nM | 130 nM | 800 nM | 800 nM | 1.1 °C
Cc1c(N)nc([C@H](CC(N)=O)NC[C@H](N)C(N)=O)nc1C(=O)N[C@H](C(=O)N[C@H](C)[C@@H](O)[C@H](C)C(=O)N[C@H](C(=O)NCCc1nc(-c2nc(C(=O)NCCCNCCCCNC(=O)[C@@H](N)C(C)C)cs2)cs1)[C@@H](C)O)[C@@H](O[C@@H]1O[C@@H](CO)[C@@H](O)[C@H](O)[C@@H]1O[C@H]1O[C@H](CO)[C@@H](O)[C@H](OC(N)=O)[C@@H]1O)c1c[nH]cn1 | 325000 | 660 nM | 130 nM | 1390 nM | 1830 nM | 1.9 °C
Cc1c(N)nc([C@H](CC(N)=O)NC[C@H](N)C(N)=O)nc1C(=O)N[C@H](C(=O)N[C@H](C)[C@@H](O)[C@H](C)C(=O)N[C@H](C(=O)NCCc1nc(-c2nc(C(=O)NCCCNCCCCNC(=O)[C@H](N)CCCCN)cs2)cs1)[C@@H](C)O)[C@@H](O[C@@H]1O[C@@H](CO)[C@@H](O)[C@H](O)[C@@H]1O[C@H]1O[C@H](CO)[C@@H](O)[C@H](OC(N)=O)[C@@H]1O)c1c[nH]cn1 | 559000 | 510 nM | 100 nM | 920 nM | 1080 nM | 8.4 °C

Now from value to compound, other results behind:

Kb (Calf thymus DNA) | IC50 (HL-60) | IC50 (MDA-MB-435) | IC50 (BGC-823) | IC50 [1] | Compound | ΔTm (Nucleic Acid)
260000 | 270 nM | 90 nM | 930 nM | 1180 nM | Cc1c(N)nc([C@H](CC(N)=O)NC[C@H](N)C(N)=O)nc1C(=O)N[C@H](C(=O)N[C@H](C)[C@@H](O)[C@H](C)C(=O)N[C@H](C(=O)NCCc1nc(-c2nc(C(=O)NCCCNCCCCNC(=O)[C@H](CC(C)C)NC(=O)[C@H](N)C(C)C)cs2)cs1)[C@@H](C)O)[C@@H](O[C@@H]1O[C@@H](CO)[C@@H](O)[C@H](O)[C@@H]1O[C@H]1O[C@H](CO)[C@@H](O)[C@H](OC(N)=O)[C@@H]1O)c1c[nH]cn1 | 0.5 °C
423000 | 630 nM | 320 nM | 870 nM | 1320 nM | Cc1c(N)nc([C@H](CC(N)=O)NC[C@H](N)C(N)=O)nc1C(=O)N[C@H](C(=O)N[C@H](C)[C@@H](O)[C@H](C)C(=O)N[C@H](C(=O)NCCc1nc(-c2nc(C(=O)NCCCNCCCCNC(=O)[C@H](CC(C)C)NC(=O)[C@@H](N)C(C)C)cs2)cs1)[C@@H](C)O)[C@@H](O[C@@H]1O[C@@H](CO)[C@@H](O)[C@@H](O)[C@@H]1O[C@H]1O[C@H](CO)[C@@H](O)[C@H](OC(N)=O)[C@@H]1O)c1c[nH]cn1 | 1.8 °C
408000 | 740 nM | 100 nM | 1170 nM | 1910 nM | Cc1c(N)nc([C@H](CC(N)=O)NC[C@H](N)C(N)=O)nc1C(=O)N[C@H](C(=O)N[C@H](C)[C@@H](O)[C@H](C)C(=O)N[C@H](C(=O)NCCc1nc(-c2nc(C(=O)NCCCNCCCCNC(=O)[C@H](CCCCN)NC(=O)[C@H](N)C(C)C)cs2)cs1)[C@@H](C)O)[C@@H](O[C@@H]1O[C@@H](CO)[C@@H](O)[C@H](O)[C@@H]1O[C@H]1O[C@H](CO)[C@@H](O)[C@H](OC(N)=O)[C@@H]1O)c1c[nH]cn1 | 5.9 °C
496000 | 70 nM | 70 nM | 600 nM | 1140 nM | Cc1c(N)nc([C@H](CC(N)=O)NC[C@H](N)C(N)=O)nc1C(=O)N[C@H](C(=O)N[C@H](C)[C@@H](O)[C@H](C)C(=O)N[C@H](C(=O)NCCc1nc(-c2nc(C(=O)NCCCNCCCCNC(=O)[C@H](CCCCN)NC(=O)[C@@H](CC(C)C)NC(=O)[C@@H](N)C(C)C)cs2)cs1)[C@@H](C)O)[C@@H](O[C@@H]1O[C@@H](CO)[C@@H](O)[C@H](O)[C@@H]1O[C@H]1O[C@H](CO)[C@@H](O)[C@H](OC(N)=O)[C@@H]1O)c1c[nH]cn1 | 4.7 °C
463000 | 980 nM | 220 nM | 1010 nM | 3320 nM | Cc1c(N)nc([C@H](CC(N)=O)NC[C@H](N)C(N)=O)nc1C(=O)N[C@H](C(=O)N[C@H](C)[C@@H](O)[C@H](C)C(=O)N[C@H](C(=O)NCCc1nc(-c2nc(C(=O)NCCCNCCCCNC(=O)[C@H](CCCCN)NC(=O)[C@@H](N)C(C)C)cs2)cs1)[C@@H](C)O)[C@@H](O[C@@H]1O[C@@H](CO)[C@@H](O)[C@H](O)[C@@H]1O[C@H]1O[C@H](CO)[C@@H](O)[C@H](OC(N)=O)[C@@H]1O)c1c[nH]cn1 | 7 °C
